The record followed here is ChEMBL document CHEMBL1159022, “Isolation of Latrunculin A, 6,7-Epoxylatrunculin A, Fijianolide A, and Euryfuran from a New Genus of the Family Thorectidae” (J Nat Prod, 1992).

Molecules are shown by their SMILES. Converted amounts (≈) assume the structure as drawn.

One assay relates to Candida albicans. In words: Antifungal activity against Candida albicans. Type of assay: functional.
The test system of a further assay is A549. In words: Antiproliferative activity against human A549 cells. Type of assay: functional, cell-based.
For the next assay, the system named is P388. In words: Antiproliferative activity against mouse P388 cells. It is filed as functional, cell-based.
The nature of assay [1]: Inhibition of PMA-induced mouse EL-4.IL-2 cell adhesion at 0.003 ug/ml. It is filed as functional.
Assay [2] is described as follows: Inhibition of PMA-induced mouse EL-4.IL-2 cell adhesion at 0.025 ug/ml. It is filed as functional.
The species named for the next assay is Mus musculus. Kind of assay: Inhibition of mouse EL-4.IL-2 cell adhesion at 0.003 to 0.025 ug/ml in absence of PMA. It is filed as functional. Conditions: filed as agonist.
The nature of assay [3]: Inhibition of PMA-induced mouse EL-4.IL-2 cell adhesion at 0.125 ug/ml. It is filed as functional.

What is called MIC is the lowest concentration that inhibits growth of the organism. Read a high MIC as a need for much substance. A word on the IC50: it is the concentration needed to halve the response being measured. High values mean lower potency, low ones higher potency. Broadly, the inhibition is how much of the control response was suppressed. Read a low inhibition as a response near the control. Consider `C/C1=C/C(=O)O[C@@H]2C[C@@H](CC[C@H](C)/C=C\C3OC3CC1)O[C@@](O)([C@@H]1CSC(=O)N1)C2` (stereo partly drawn) [6,7-EPOXYLATRUNCULIN A], for which the MIC against Candida albicans was found to be 25 µg/mL (≈ 57.1 µM). For the same compound, the IC50 in the assay with A549 is 0.2 µg/mL (≈ 0.457 µM); in the assay on P388, 1.8 µg/mL (≈ 4.11 µM). This compound showed an inhibition at 0.003 µg/mL in assay [1] of 100%.
For `CC1(C)CCC[C@@]2(C)c3cocc3CC[C@H]12` [EURYFURAN], the inhibition at 0.025 µg/mL in assay [2] was 48%. The figures for the IC50 in the assay on A549 and in the assay with P388 were 1.5 µg/mL (≈ 6.87 µM) and 1.6 µg/mL (≈ 7.33 µM), respectively.
`C=C1C[C@H](C)C[C@@H]2CC=C[C@@H](C/C=C\C(=O)O[C@H]3C[C@@H](O[C@H]3/C=C/[C@@H]3CC(C)=CCO3)[C@@H](O)[C@@H](O)C1)O2` [FIJIANOLIDE A] displayed an MIC against Candida albicans of 6.2 µg/mL (≈ 12 µM). Further, the IC50 was 1.4 µg/mL (≈ 2.72 µM) in the assay with A549 and 1 µg/mL (≈ 1.94 µM) with P388. Moreover, in the assay filed under Mus musculus, the Activity entry was “Agonist”.
With `C/C1=C/C(=O)O[C@@H]2C[C@@H](CC[C@H](C)/C=C\C=C\CC1)O[C@@](O)([C@@H]1CSC(=O)N1)C2` [LATRUNCULIN A], the MIC in the assay on Candida albicans was 15.6 µg/mL (≈ 37 µM). Further, the inhibition at 0.125 µg/mL in assay [3] was 50%.
